Assay results from US4230719A, “Novel 2-[4-(3-methyl-2-thienyl)phenyl]propionic acid and pharmaceutically acceptable salt thereof and method for treating symptoms of inflammation and pain” (Toyama Chemical Co., Ltd., priority 1977, dated 1980).
Like-named read-outs stand apart in the source and are kept apart here.

Key:
[1] = test system: gastric mucosa and intestine; experiment: Test for ulcerogenic action (i), single dose, fasted rats; assay type: in vivo; details: for Gastric glandular score: 18 hours, score 0 (no lesion) to 4 (many large ulcers or perforation)
Method: (§1) (4) Test for ulcerogenic action
(§2) After 18 hours, the rats were killed by suffocation with chloroform and their stomachs were excised. After having been filled with 5 ml of 1% formalin to fix the gastric mucosa, each stomach was incised along the greater curvature to inspect grossly the extent of injury of the gastric mucosa. The extent of injury was scored as follows: 0, no lesion; 1, petechia or erosion; 2, 1-5 small ulcers; 3, many small ulcers; 4, many large ulcers or perforation. The intestinal injury was evaluated based on the incidence of erosion.

[2] = as above; assay type: in vivo; details: rat, in vivo, po
Method: as §1, §2

[3] = test system: gastric mucosa and intestine; experiment: Test for ulcerogenic action (ii), three doses, rats on normal meal; assay type: in vivo, rat (Donryu strain, male); design: scale not given here
Method: (ii) In the same manner as in (i), the test compound was orally administered to each Donryu strain male rat (weighing about 180 g; 10 rats per group) which had received normal meal. The second dose was administered after 8 hours and the third dose after 16 hours from the second dose. Five hours after the last administration, the rats were treated in the same manner as in (i). The gastric mucosa injury and the intestinal injury were scored in the same manner as in (i).

in vivo = details: rat, po
Adjuvant arthritis = experiment: Adjuvant arthritis; assay type: in vivo, rat (Sprague-Dawley strain, male); details: 1 mg/kg p.o./day, mean during one week
Method: A suspension containing 6 mg/ml of killed and dried Mycobacterium butyricum in liquid paraffin was subcutaneously injected into the subplantar region of the left hind paw of Sprague-Dawley strain male rats (weighing 180 to 200 g) in a proportion of 0.1 ml/rat. After 14 days, the rats having inflammatory paws of similar volumes were selected and the test compound was orally administered to the rats repeatedly at the rate shown in Table 4 during one week and the mean inhibitory percent of swelling during one week was determined.

[4] = test system: phenylbenzoquinone writhing; experiment: Analgesic activity, phenylbenzoquinone method in mouse; assay type: in vivo, mouse (ddY strain, male); details: for Frequency of writhing, mean ± S.E.: during 10 minutes
Method: (i) Phenylbenzoquinone method in mouse
The test compound was orally administered to each ddY strain male mouse (weighing 22±2 g; 8 mice per group). […] The frequency of writhing during 10 minutes from 5-minutes after the injection of phenylbenzoquinone was measured and compared with that of a control group to which a 0.5% Tween 80 solution was administered. The percent inhibition was calculated by the following equation: [formula]

[5] = test system: Carrageenin-induced edema; experiment: Carrageenin-induced edema; assay type: in vivo, rat (Donryu strain, male); details: Rattus norvegicus, po, mean in 5 hours, read-out: Inhibitory percent of swelling
Method: (iii) Carrageenin-induced edema
Each of the 6 Donryu strain male rats per group (each weighing about 140 g), which had been fasted overnight, was orally loaded with 4 ml of water and, after 30 minutes, the test compound was orally administered thereto. Thirty minutes thereafter, a 1%(Wt/V) solution of carrageenin in physiological saline was subcutaneously injected into the subplantar region of the left hind paw. At a time interval of one hour, starting from the end of the first hour till the end of the fifth hour after injection of carrageenin, the paw volume was measured by means of a manometer and pressure transducer. By comparison with the percent increase in swelling of the control group of rats to which a 0.5%(V/V) solution of Tween 80 had been administered, the mean inhibitory percent in 5 hours of swelling was calculated by the following equation: [formula]

Vascular permeability [6] = experiment: Vascular permeability in mice (Whittle's method); assay type: in vivo, mouse (ddY strain, male); details: for Inhibition: dye leakage
Method: (i) Vascular permeability in mice (Whittle's method)
The test compound was orally administered to each ddY strain male mouse (weighing each about 20 g). After 20 minutes, 0.1 ml/10 g of a 4%(Wt/V) solution of Pontamine Sky Blue in physiological saline was intravenously injected and 10 minutes thereafter 0.1 ml/10 g of a 0.7%(V/V) solution of acetic acid in physiological saline was injected intraperitoneally. After 30 minutes, the mice were killed by suffocation with chloroform. After immediate laparotomy, the dye leaked into the peritoneal cavity was washed out with distilled water. The washings were made up with water to 30 ml and the absorbance at 620 mμ was measured. The amount of leaked dye per 20 g of mouse weight was compared.

Vascular permeability [7] = experiment: Vascular permeability in rat (Whittle's method); assay type: in vivo, rat (Wistar strain, male)
Method: (ii) Vascular permeability in rat (Whittle's method)
The test compound was orally administered to each Wistar strain male rat (weighing about 150 g) which had been fasted overnight. After 55 minutes, 0.5 ml of a 0.5% Evans Blue solution was intravenously injected. Five minutes thereafter, 0.2 ml/100 g of a 3%(V/V) acetic acid solution was intraperitoneally injected. After 60 minutes from the injection of the acetic acid solution, the rats were killed by suffocation with chloroform. After immediate laparotomy, the dye leaked into the peritoneal cavity was washed out with physiological saline. The washings were made up with the saline to 30 ml and the absorbance at 640 mμ was measured to examine the effect of the test compounds by comparing the amounts of leaked dye per rat with one another.

[8] = test system: pain threshold (brewer's yeast, hind paw); experiment: Analgesic activity, Randall-Selitto method in rat; assay type: in vivo, rat (Wistar strain, male); details: for Inhibition: 100% = pain threshold raised by 150 g
Method: (ii) Randall-Selitto method in rat
After one hour, the test compound was orally administered. One hour thereafter, the pain threshold value was measured four times at a time interval of one hour. The mean value of four values obtained was taken as the pain threshold value of each group of rats. The activity of the drug was assumed to be 100% when the pain threshold value was raised by 150 g.

[9] = test system: fever (Mycobacterium butyricum); experiment: Antipyretic action; assay type: in vivo, rat (Wistar strain, female)
Method: A suspension (0.6 mg/0.1 ml) of killed and dried Mycobacterium butyricum in liquid paraffin was subcutaneously injected in an amount of 0.1 ml into the subplantar region of the hind paw of each Wistar strain female rat weighing about 180 g. After 14 hours, the fevered rats were divided into groups, and each test compound was orally administered to each group to examine the antipyretic effect.

uric acid in plasma = experiment: Uricosuric action (b), uric acid in plasma of uric acid loaded rats; assay type: in vivo, rat (Wistar strain, male)
Method: (b) After fasting overnight, the test compound was orally administered to a Wistar strain male rat weighing 150 to 200 g. After one hour, the rat was loaded with 100 mg/kg of uric acid by intraperitoneal administration. Thirty minutes thereafter, a blood sample was drawn from the cervical vein and the uric acid concentration in the plasma was determined by use of a kit (Uric acid test Wako) for the uric acid determination.

Glomerulonephritis = experiment: Action on glomerulonephritis in rats; assay type: in vivo, rat (Wistar strain, male); details: 25 mg/kg p.o./day
From the text: (ii) Action on glomerulonephritis in rats
Glomerulonephritis was induced in Wistar strain male rats (each weighing 180 to 200 g) by use of an anti-rat's kidney rabbit serum obtained from the serum of a rabbit sensitized with a homogenate of rat's kidney cortice. To the rat producing stable proteinuria was orally administered the test compound repeatedly at the rate shown in Table 12 for 2 weeks, and the inhibition of uric protein was examined.

[10] = test system: prostaglandin biosynthesis (homogenate of guinea pig's lung); experiment: Inhibitory action on prostaglandin biosynthesis (TBA method); details: read-out: ID50
From the text: Using a homogenate of guinea pig's lung as an enzyme preparation for the biosynthesis of prostaglandin, the inhibitory activity of the test compound against the prostaglandin biosynthesis was examined by the TBA (thiobarbituric acid) method.

[11] = test system: threshold value of pain due to pressure stimuli (tail); details: for Analgesic effect: 100% = threshold raised by 160 g
[12] = test system: Phenol Red (PSP) excretion; experiment: Uricosuric action (a), inhibition of Phenol Red (PSP) excretion; assay type: in vivo, rabbit (male)
Method: (a) The action was examined by the method of B. B. Brodie et al. who reported that the inhibitory action on Phenol Red (PSP) excretion correlates with the uricosuric action [Proc. Soc. Exp. Biol. Med., 86, 884 (1954)]. To a male rabbit weighing 2 to 3 kg was intraperitoneally administered the test compound. After 30 minutes, 75 mg/kg of a Phenol Red suspension was injected into the pinna vein of the rabbit and 30 minutes thereafter a blood sample was drawn from the pinna vein. The blood sample was centrifuged and the serum was diluted with physiological saline. The diluted serum was treated with 0.1 N NaOH to develop the color. The concentration of Phenol Red in the serum was determined from the absorbance at 560 mμ.

CC(C(=O)O)c1ccc(-c2cccs2)c(Cl)c1 (centres unmarked) [Compound C3]
Intestine erosion incidence ([1]; 10 mg/kg p.o.): 0/7
Gastric glandular score ([1]; 10 mg/kg p.o.): 1.18 ± 0.30
Intestine erosion incidence ([1]; 30 mg/kg p.o.): 0/7
Gastric glandular score ([1]; 30 mg/kg p.o.): 1.96 ± 0.42
Intestine erosion incidence ([1]; 100 mg/kg p.o.): 4/7
Gastric glandular score ([1]; 100 mg/kg p.o.): 3.39 ± 0.30
TD50 at 18 h [2]: 27 mg/kg
Score, intestine, mean ± S.E. ([3]; 5 mg/kg × 3 p.o.): 0.83 ± 0.21
Score, stomach, mean ± S.E. ([3]; 5 mg/kg × 3 p.o.): 1.67 ± 0.31
Score, intestine, mean ± S.E. ([3]; 15 mg/kg × 3 p.o.): 1.50 ± 0.38
Score, stomach, mean ± S.E. ([3]; 15 mg/kg × 3 p.o.): 2.36 ± 0.14
LD50 (in vivo): 270 mg/kg
Inhibitory percent of swelling (Adjuvant arthritis): 8.1%
Frequency of writhing, mean ± S.E. ([4]; 10 mg/kg p.o.): 23.1 ± 3.5
Frequency of writhing, mean ± S.E. ([4]; 20 mg/kg p.o.): 19.4 ± 3.7
Frequency of writhing, mean ± S.E. ([4]; 40 mg/kg p.o.): 12.4 ± 3.0
inhibition in vivo at 10 mg/kg ([4]; Mus musculus, po, 10 min, writhing, 10 mg/kg p.o., read-out: Inhibition): 2.1%
inhibition in vivo at 20 mg/kg ([4]; Mus musculus, po, 10 min, writhing, 20 mg/kg p.o., read-out: Inhibition): 17.8%
inhibition in vivo at 40 mg/kg ([4]; Mus musculus, po, 10 min, writhing, 40 mg/kg p.o.): 47.5%
ED50 ([4]; po, mouse, read-out: ED50): 50 mg/kg
inhibition in vivo at 1 mg/kg ([5]; 1 mg/kg p.o.): 15.2%
inhibition in vivo at 5 mg/kg ([5]; 5 mg/kg p.o.): 42%
Dye leakage (P.S.B.) mean ± S.E. (Vascular permeability [6]; 5 mg/kg p.o.): 289.3 ± 21.4 μg/20g
Dye leakage (P.S.B.) mean ± S.E. (Vascular permeability [6]; 10 mg/kg p.o.): 254.2 ± 10.3 μg/20g
Dye leakage (P.S.B.) mean ± S.E. (Vascular permeability [6]; 20 mg/kg p.o.): 226.9 ± 15.3 μg/20g
Inhibition (Vascular permeability [6]; 5 mg/kg p.o.): 9.8%
Inhibition (Vascular permeability [6]; 10 mg/kg p.o.): 20.8%
Inhibition (Vascular permeability [6]; 20 mg/kg p.o.): 29.3%
ED30 (Vascular permeability [6]; po, mouse, read-out: ED30): 20.5 mg/kg
Inhibition (Vascular permeability [7]; 1 mg/kg p.o.): 22.2%
Inhibition (Vascular permeability [7]; 5 mg/kg p.o.): 44.6%
ED30 (Vascular permeability [7]; po, rat, read-out: ED30): 1.7 mg/kg
Inhibition ([8]; 1 mg/kg p.o.): 14.4%
Inhibition ([8]; 5 mg/kg p.o.): 32.5%
Inhibition ([8]; 25 mg/kg p.o.): 56.6%
ED50 ([8]; po, rat, read-out: ED50): 16.5 mg/kg

CCCCC1C(=O)N(c2ccccc2)N(c2ccccc2)C1=O [Phenylbutazone]
Mean decrease in temp. ([9]; 5 mg/kg p.o.): 0.27 °C
Mean decrease in temp. ([9]; 20 mg/kg p.o.): 1.10 °C
Mean decrease in temp. ([9]; 100 mg/kg p.o.): 1.35 °C
ED1.0 ([9]; Rattus norvegicus, po): 26.5 mg/kg
Uric acid concentration in plasma, mean ± S.E. (uric acid in plasma; 50 mg/kg p.o.): 5.3 ± 0.37 mg/dL
Uric acid concentration in plasma, mean ± S.E. (uric acid in plasma; 100 mg/kg p.o.): 3.3 ± 0.25 mg/dL
Inhibition of uric protein (Glomerulonephritis; 7th day): 1.0%
Inhibition of uric protein (Glomerulonephritis; 14th day): 11.2%
IC50 [10]: 68 µM
Analgesic effect ([11]; 25 mg/kg p.o.): 26%
Analgesic effect ([11]; 100 mg/kg p.o.): 70%
ED50 ([11]; Mus musculus, po): 53 mg/kg
Concentration of PSP in serum, mean ± S.E. ([12]; 50 mg/kg i.p.): 174.0 ± 5.0 µg/mL
Concentration of PSP in serum, mean ± S.E. ([12]; 100 mg/kg i.p.): 238.0 ± 15.9 µg/mL
